Measurements: patent US8669208B2, “Herbicidal benzoxazinones” (BASF SE, priority 2010, dated 2014)

How the values were obtained:
Type in all cases: in vivo
[1] = system: Abutilon theophrasti; test: greenhouse herbicidal test, pre-emergence treatment; conditions: pre-emergence method, application rate 50 g/ha; scale from 0 to 100
Excerpt: (§1) The seeds of the test plants were sown separately for each species. For the pre-emergence treatment, the active ingredients, which had been suspended or emulsified in water, were applied directly after sowing by means of finely distributing nozzles. The containers were irrigated gently to promote germination and growth and subsequently covered with transparent plastic hoods until the plants had rooted. This cover caused uniform germination of the test plants, unless this has been impaired by the active ingredients. Depending on the species, the plants were kept at 10-25° C. or 20-35° C. The test period extended over 2 to 4 weeks. During this time, the plants were tended, and their response to the individual treatments was evaluated. Evaluation was carried out using a scale from 0 to 100. 100 means no emergence of the plants, or complete destruction of at least the aerial moieties, and 0 means no damage, or normal course of growth. A good herbicidal activity is given at values of at least 70 and a very good herbicidal activity is given at values of at least 85. The plants used in the greenhouse experiments belonged to the following species: [table]

[2] = system: Amaranthus retroflexus; test: as above; conditions: pre-emergence method, scale from 0 to 100, read-out: herbicidal activity against Amaranthus retroflexus; for pest or weed control at 50 g/ha: application rate 50 g/ha; for pest or weed control at 25 g/ha: application rate 25 g/ha
Excerpt: as §1

[3] = system: Chenopodium album; test: as above; conditions: pre-emergence method, application rate 50 g/ha, scale from 0 to 100, read-out: herbicidal activity against Chenopodium album
Excerpt: as §1

[4] = system: Abutilon theophrasti; test: greenhouse herbicidal test, post-emergence treatment; conditions: post-emergence method, application rate 1000 g/ha; scale from 0 to 100
Excerpt: (§2) The seeds of the test plants were sown separately for each species. For the post-emergence treatment, the test plants were first grown to a height of 3 to 15 cm, depending on the plant habit, and only then treated with the active ingredients which had been suspended or emulsified in water. For this purpose, the test plants were either sown directly and grown in the same containers, or they were first grown separately as seedlings and transplanted into the test containers a few days prior to treatment. Depending on the species, the plants were kept at 10-25° C. or 20-35° C. The test period extended over 2 to 4 weeks. During this time, the plants were tended, and their response to the individual treatments was evaluated. Evaluation was carried out using a scale from 0 to 100. 100 means no emergence of the plants, or complete destruction of at least the aerial moieties, and 0 means no damage, or normal course of growth. A good herbicidal activity is given at values of at least 70 and a very good herbicidal activity is given at values of at least 85. The plants used in the greenhouse experiments belonged to the following species: [table]

[5] = system: Viola arvensis; test: greenhouse herbicidal test, pre-emergence treatment; conditions: pre-emergence method, application rate 25 g/ha; scale from 0 to 100
Excerpt: as §1

[6] = system: Kochia scoparia; test: greenhouse herbicidal test, post-emergence treatment; conditions: post-emergence method, application rate 12.5 g/ha; scale from 0 to 100
Excerpt: as §2

[7] = system: Amaranthus palmeri; test: as above; conditions: post-emergence method, application rate 12.5 g/ha; scale from 0 to 100
Excerpt: as §2

[8] = system: Malva neglecta; test: as above; conditions: post-emergence method, application rate 12.5 g/ha; scale from 0 to 100
Excerpt: as §2

| SMILES | herbicidal activity against Abutilon theophrasti [1] | pest or weed control at 50 g/ha [2] [%] | pest or weed control at 50 g/ha [3] [%] | also measured |
| --- | --- | --- | --- | --- |
| C#CCN1C(=O)C(F)(F)Oc2cc(F)c(N3C(=O)[C@H]4C[C@H](F)CN4C3=O)cc21 [Example 2, (6S,7aR)-6-Fluoro-2-(2,2,7-trifluoro-3-oxo-4-prop-2-ynyl-3,4-dihydro-2H-benzo[1,4]-oxazin-6-yl)-tetrahydro-pyrrolo[1,2-c]imidazole-1,3-dione] | very good herbicidal activity (a very good herbicidal activity is given at values of at least 85) | ≥ 85 | ≥ 85 |  |
| C#CCN1C(=O)C(F)(F)Oc2cc(F)c(-n3nc4n(c3=O)CCCC4)cc21 [Example 9] | very good herbicidal activity (a very good herbicidal activity is given at values of at least 85) | ≥ 85 | ≥ 85 |  |
| C#CCN1C(=O)C(F)(F)Oc2cc(F)c(N3C(=O)OC(=C(C)C)C3=O)cc21 [Example 10] | very good herbicidal activity (a very good herbicidal activity is given at values of at least 85) | ≥ 85 | ≥ 85 |  |
| C#CCN1C(=O)C(F)(F)Oc2cc(F)c(-n3nc(C)n(C(F)F)c3=O)cc21 [Example 11] | very good herbicidal activity (a very good herbicidal activity is given at values of at least 85) | ≥ 85 | ≥ 85 |  |
| C#CCN1C(=O)C(F)(F)Oc2cc(F)c(-n3nc(C)nc3OC(F)F)cc21 [Example 12] | very good herbicidal activity (a very good herbicidal activity is given at values of at least 85) | ≥ 85 | ≥ 85 |  |
| C#CCN1C(=O)C(F)(F)Oc2cc(F)c(/N=c3\snc4n3CC(C)(C)C4)cc21 [Example 13] |  | ≥ 85 | ≥ 85 |  |
| C#CCN1C(=O)C(F)(F)Oc2cc(F)c(N3C(=O)CC(C)CC3=O)cc21 [Example 14] | very good herbicidal activity (a very good herbicidal activity is given at values of at least 85) | ≥ 85 | ≥ 85 |  |
| C#CCN1C(=O)C(F)(F)Oc2cc(F)c(N3C(=O)c4ccc(F)cc4C3=O)cc21 [Example 15] |  | ≥ 85 | ≥ 85 |  |
| C#CCN1C(=O)C(F)(F)Oc2cc(F)c(/N=c3\scc(C(F)(F)F)n3C)cc21 [Example 16] |  | ≥ 85 | ≥ 85 |  |
| C#CCN1C(=O)C(F)(F)Oc2cc(F)c(N3C(=O)CC(=C(C)C)C3=O)cc21 [Example 17] |  | ≥ 85 | ≥ 85 |  |
| Cn1nc(-c2cc3c(cc2F)OC(F)(F)C(=O)N3)cc1C(F)(F)F [Example 19] |  |  |  | herbicidal activity against Abutilon theophrasti [4]: very good herbicidal activity (a very good herbicidal activity is given at values of at least 85) |
| C#CCN1C(=O)C(F)(F)Oc2cc(F)c(-n3ncc(C(F)(F)F)c(C)c3=O)cc21 [Ia48, 2,2,7-Trifluoro-6-(5-methyl-6-oxo-4-trifluoromethyl-6H-pyridazin-1-yl)-4-prop-2-ynyl-4H-benzo[1,4]oxazin-3-one] |  |  |  | pest or weed control at 25 g/ha [2]: ≥ 85%; herbicidal activity against Viola arvensis [5]: very good herbicidal activity (a very good herbicidal activity is given at values of at least 85); herbicidal activity against Kochia scoparia [6]: very good herbicidal activity (a very good herbicidal activity is given at values of at least 85); herbicidal activity against Amaranthus palmeri [7]: very good herbicidal activity (a very good herbicidal activity is given at values of at least 85); herbicidal activity against Malva neglecta [8]: very good herbicidal activity (a very good herbicidal activity is given at values of at least 85) |
| C#CCN1C(=O)C(F)(F)Oc2cc(F)c(/N=c3\sc(=O)n4n3CCCC4)cc21 [If48] | very good herbicidal activity (a very good herbicidal activity is given at values of at least 85) | ≥ 85 | ≥ 85 |  |
| C#CCN1C(=O)C(F)(F)Oc2cc(F)c(-n3nc(C(C)(C)C)oc3=O)cc21 [Ig48, 6-(5-tert-Butyl-2-oxo-[1,3,4]oxadiazol-3-yl)-2,2,7-trifluoro-4-prop-2-ynyl-4H-benzo[1,4]oxazin-3-one] |  |  |  | pest or weed control at 25 g/ha [2]: ≥ 85%; herbicidal activity against Viola arvensis [5]: very good herbicidal activity (a very good herbicidal activity is given at values of at least 85); herbicidal activity against Kochia scoparia [6]: good herbicidal activity (A good herbicidal activity is given at values of at least 70); herbicidal activity against Amaranthus palmeri [7]: very good herbicidal activity (a very good herbicidal activity is given at values of at least 85); herbicidal activity against Malva neglecta [8]: very good herbicidal activity (a very good herbicidal activity is given at values of at least 85) |
| C#CCN1C(=O)C(F)(F)Oc2cc(F)c(N3C(=O)C(=O)N(CCC)C3=S)cc21 [Ii48, 1-Propyl-2-thioxo-3-(2,2,7-trifluoro-3-oxo-4-prop-2-ynyl-3,4-dihydro-2H-benzo[1,4]oxazin-6-yl)-imidazolidine-4,5-dione] |  |  |  | herbicidal activity against Kochia scoparia [6]: very good herbicidal activity (a very good herbicidal activity is given at values of at least 85); herbicidal activity against Malva neglecta [8]: very good herbicidal activity (a very good herbicidal activity is given at values of at least 85) |
| C#CCN1C(=O)C(F)(F)Oc2cc(F)c(-n3c(=O)c4ccccc4n(C)c3=O)cc21 [Ik48, 1-Methyl-3-(2,2,7-trifluoro-3-oxo-4-prop-2-ynyl-3,4-dihydro-2H-benzo[1,4]oxazin-6-yl)-1H-quinazoline-2,4-dione] |  |  |  | pest or weed control at 25 g/ha [2]: ≥ 85%; herbicidal activity against Viola arvensis [5]: good herbicidal activity (A good herbicidal activity is given at values of at least 70); herbicidal activity against Kochia scoparia [6]: very good herbicidal activity (a very good herbicidal activity is given at values of at least 85); herbicidal activity against Amaranthus palmeri [7]: very good herbicidal activity (a very good herbicidal activity is given at values of at least 85); herbicidal activity against Malva neglecta [8]: very good herbicidal activity (a very good herbicidal activity is given at values of at least 85) |
